Measurements taken from patent US6555571B2, “3-methyl -chromane or thiochromane derivatives” (Chugai Seiyaku Kabushiki Kaisha, priority 1999, dated 2003).

Test system: increase in uterus weight by stimulus with estradiol
Experiment: Anti-estrogenic activity via oral administration (inhibition of estradiol-stimulated increase in uterus weight in ovariectomized mice)
Type: in vivo
Settings: ovariectomized ICR mice, 17β-estradiol-benzoate 0.1 μg/day s.c. for 3 days, test compound 10 mg/kg p.o., once a day, uterus weighed 24 hours after last administration
Experimental: Oral anti-estrogenic activity in vivo of the test compound was determined according to the method described hereinafter. […] In this experiment, the test compounds and the control compound were suspended in 5% arabic gum solution and orally administered for 3 days, once a day. After 24 hours from the last administration, the test animal was sacrificed and uterus was removed and weighed.

Compound: C[C@]1(c2ccc(O)cc2)COc2cc(O)ccc2[C@H]1CCCCCCCCC(CCCCCCC(F)(F)C(F)(F)F)C(=O)O (stereo partly drawn) [Example 4, (3′RS,4′RS)-10-[7-hydroxy-3-(4-hydroxyphenyl)-3-methylchroman-4-yl]-2-(7,7,8,8,8-pentafluorooctyl)decanoic acid]
- Inhibition (%) of the increase in uterus weight by estradiol: 71.4%

Compound: C[C@]1(c2ccc(O)cc2)CSc2cc(O)ccc2[C@H]1CCCCCCCCCC(CCCCCCC(F)(F)C(F)(F)F)C(=O)O (stereo partly drawn) [Example 2, (3′RS,4′RS)-11-[7-hydroxy-3-(4-hydroxyphenyl)-3-methylthiochroman-4-yl]-2-(7,7,8,8,8-pentafluorooctyl)undecanoic acid]
- Inhibition (%) of the increase in uterus weight by estradiol: 62.0%

Compound: C[C@]1(c2ccc(O)cc2)CSc2cc(O)ccc2[C@H]1CCCCCCCCC(CCCCCCC(F)(F)C(F)(F)F)C(=O)O (stereo partly drawn) [Example 1, (3′RS,4′RS)-10-[7-hydroxy-3-(4-hydroxyphenyl)-3-methylthiochroman-4-yl]-2-(7,7,8,8,8-pentafluorooctyl)decanoic acid]
- Inhibition (%) of the increase in uterus weight by estradiol: 78.9%

Compound: C[C@]1(c2ccc(O)cc2)CCc2cc(O)ccc2C1CCCCCCCCC[S+]([O-])CCCC(F)(F)C(F)(F)F (some centres unmarked) [ZM189154, reference compound]
- Inhibition (%) of the increase in uterus weight by estradiol: 41.7%

Compound: C[C@]1(c2ccc(O)cc2)COc2cc(O)ccc2[C@H]1CCCCCCCCCC(CCCCCCC(F)(F)C(F)(F)F)C(=O)O (stereo partly drawn) [Example 3, (3′RS,4′RS)-11-[7-hydroxy-3-(4-hydroxyphenyl)-3-methylchroman-4-yl]-2-(7,7,8,8,8-pentafluorooctyl)undecanoic acid]
- Inhibition (%) of the increase in uterus weight by estradiol: 85.1%
